For 15 molecules, remaining activity results are on record in US12594264B2, “Modulators of alpha-synuclein proteolysis and associated methods of use” (Arvinas Operations, Inc., priority 2018, dated 2026).

Structures can show the parent of a compound that is named as a salt.

For this assay, the target named is T1, sarkosyl insoluble (SI) α-synuclein (human α-SYN A53T) (Homo sapiens, UniProt P37840, A53T).
T1 construct: expressed in transfected cells
Put plainly: MJFF-14-6-4-2 conformation specific ELISA of sarkosyl insoluble α-synuclein after compound treatment. Type of assay: cell-based. To be noted: 1 μM compound; protein remaining relative to DMSO control; PFF induced A53T α-synuclein overexpressing HEK293 cells; read-out: Protein Degradation at 1 μM. How it is done: Targeted degradation of sarkosyl insoluble (SI) α-synuclein via exemplary bifunctional compounds was assessed by MJFF-14-6-4-2 conformation specific ELISA following treatment of PFF induced A53T α-synuclein overexpressing HEK293 cells with 1 μM exemplary compound compared to DMSO vehicle control. Degradation activity of the exemplary compounds of Table 2 is expressed as % DMSO control. […] However, the effect of bifunctional targeting degraders, shown in FIG. 5, required the intact E3 ligase binding domain.
Trex293 (doxycycline inducible) cells stably expressing human α-SYN A53T (monoclonal) were plated in poly-d-lysine coated T-75 tissue culture flasks (4.5×10e6 cells/flask) in DMEM with 10% tet-free FBS, 10 μg/ml blasticidin, and 400 μg/ml zeocin. After an overnight incubation, the cells were induced to express α-SYN by treatment with 1 μg/ml doxycycline (Dox) and exemplary bifunctional compound. After a 24 hour dox induction, the medium on the cells was changed to Opti-MEM followed by treatment with α-SYN pre-formed fibrils** (PFFs)(5 μg/flask) pre-complexed with Lipofectamine 2000 transfection reagent for 4 hours. After PFF treatment, the medium was changed back to DMEM with the supplements described above and exemplary bifunctional compound for 48 hours.
Cell pellets were harvested from each flask using 0.25% trypsin followed by spinning at 500×g for 5 minutes. Each pellet was resuspended in 1 ml cold buffer H [Buffer H-10 mM Tris, 1 mM EGTA, 0.8M NaCl, 10% sucrose, pH7.4 containing 1× protease and phosphatase inhibitors] containing protease and phosphatase inhibitors. The resuspended pellets were incubated on ice for 20 minutes followed by centrifugation at 27,200×g for 20 minutes at 4° C. The supernatants were adjusted to 1% sarkosyl (Sigma) and 1% 2-mercaptoethanol followed by incubation for 1 hour at 37° C. on an orbital shaker set to 400 rpm. The samples were then spun at 150,000×g for 35 minutes at room temperature. The supernatant was removed and saved as the soluble fraction and the insoluble pellet was resuspended in 25 μl tris-buffered saline (TBS). Protein concentrations were determined by NanoDrop, and normalized protein concentrations were analyzed by WES capillary electrophoresis as well as an α-SYN oligomer ELISA.
Recombinant human α-SYN was purchased from Proteos. 1 mg aliquots were supplied at 10 mg/ml in 10 mM Tris, 50 mM NaCl, pH7.6. The aliquot was thawed on ice followed by centrifugation at 4° C. for 10 minutes at 12,000×g to pellet any insoluble material. The supernatant was removed and quantitated on a NanoDrop (A280) using Beer's Law (ε=5960 M-1 cm-1). The concentration was adjusted to 5 mg/ml in PBS followed by vortexing for 3 seconds to mix contents. The mixture was incubated in an orbital shaker set to 37° C. at 1,000 rpm for 7 days followed by aliquoting into individual use vials. Prior to addition to cells, an aliquot was thawed at room temperature, then diluted to 1 mg/ml with phosphate-buffered saline (PBS) followed by sonication for 1 minute with a probe sonicator (output 1; 90% duty cycle) in a chem hood.
Coming Costar high bind black well plates were coated with MJFR 14-6-4-2 (Abcam) at 1 μg/ml for 1 hour at 37° C. followed by washing with 1×TBS+0.1% tween-20 (TBS-T) then blocking with 3% bovine serum albumin (BSA) in TBS. After re-washing, samples were added after dilution in diluent (1% BSA/TBS-T). Non-sonicated PFF was used to generate a standard curve. The plates were incubated with sample overnight at 4° C. with shaking. The following day alkaline phosphatase (AP) conjugated MJFR 14-6-4-2 was added to the plate without washing followed by incubation at room temperature for 1 hour with shaking or rocking. The plates were then re-washed and substrate (CDP star alkaline phosphatase detection reagent) was added followed by a 30 minute incubation at room temperature. The plate was read on a luminescence plate reader. The counts were log transformed and read off the standard curve. […]
For the molecule `COc1cc(/C=C/c2ccc3cc(OCCOCCOCCOc4ccc5c(c4)C(=O)N(C4CCC(=O)NC4=O)C5=O)ccc3n2)ccn1` (stereo not drawn) [Exemplary Compound 47, (E)-2-(2,6-dioxopiperidin-3-yl)-5-(2-(2-(2-((2-(2-(2-methoxypyridin-4-yl)vinyl)quinolin-6-yl)oxy)ethoxy)ethoxy)ethoxy)isoindoline-1,3-dione], the remaining activity at 1 µM lay in the range of 70 to 120%.
The figure for `Cc1ncsc1-c1ccc([C@H](C)NC(=O)[C@@H]2C[C@@H](O)CN2C(=O)[C@@H](NC(=O)COCCOCCOc2ccc3c(c2)Sc2cc([N+](=O)[O-])ccc2N3)C(C)(C)C)cc1` [Exemplary Compound 8, (2S,4R)-1-[(2S)-3,3-dimethyl-2-[[2-[2-[2-[(7-nitro-10H-phenothiazin-3-yl)oxy]ethoxy]ethoxy]acetyl]amino]butanoyl]-4-hydroxy-N-[(1S)-1-[4-(4-methylthiazol-5-yl)phenyl]ethyl]pyrrolidine-2-carboxamide] is 70 to 120%; for `CN(CCCN1c2ccccc2Sc2ccccc21)CCOCCOCCOCCOc1ccc2c(c1)C(=O)N(C1CCC(=O)NC1=O)C2=O` (stereo not drawn) [Exemplary Compound 16, 2-(2,6-dioxo-3-piperidyl)-5-[2-[2-[2-[2-[methyl(3-phenothiazin-10-ylpropyl)amino]ethoxy]ethoxy]ethoxy]ethoxy]isoindoline-1,3-dione] it is 70 to 120%; for `Cc1ncsc1-c1ccc([C@H](C)NC(=O)[C@@H]2C[C@@H](O)CN2C(=O)[C@@H](NC(=O)CN2CCN(CCN3CCC(O[C@H]4C[C@H](Oc5ccc6c(c5)Sc5cc([N+](=O)[O-])ccc5N6)C4)CC3)CC2)C(C)(C)C)cc1` [Exemplary Compound 34, (2S,4R)-1-((S)-3,3-dimethyl-2-(2-(4-(2-(4-((1r,3r)-3-((7-nitro-10H-phenothiazin-3-yl)oxy)cyclobutoxy)piperidin-1-yl)ethyl)piperazin-1-yl)acetamido)butanoyl)-4-hydroxy-N-((S)-1-(4-(4-methylthiazol-5-yl)phenyl)ethyl)pyrrolidine-2-carboxamide] it is less than 35%.
On to `CNc1ccc(-c2nc3ccc(OCCOCCOCCOCCOCC(=O)N[C@H](C(=O)N4C[C@H](O)C[C@H]4C(=O)N[C@@H](C)c4ccc(-c5scnc5C)cc4)C(C)(C)C)cc3s2)cc1` [Exemplary Compound 3, (2S,4R)-1-((S)-2-(tert-butyl)-17-((2-(4-(methylamino)phenyl)benzo[d]thiazol-6-yl)oxy)-4-oxo-6,9,12,15-tetraoxa-3-azaheptadecanoyl)-4-hydroxy-N-((S)-1-(4-(4-methylthiazol-5-yl)phenyl)ethyl)pyrrolidine-2-carboxamide], for which the remaining activity at 1 µM is 35 to 70%.
As for `CN(C)c1ccc(-c2nc3ccc(O[C@H]4C[C@H](OC5CCN(CCCCCOc6ccc7c(c6)C(=O)N(C6CCC(=O)NC6=O)C7=O)CC5)C4)cc3s2)cc1` (stereo partly drawn) [Exemplary Compound 27, 2-(2,6-dioxopiperidin-3-yl)-5-[(5-[4-[(1r,3r)-3-([2-[4-(dimethylamino)phenyl]-1,3-benzothiazol-6-yl]oxy)cyclobutoxy]piperidin-1-yl]pentyl)oxy]-2,3-dihydro-1H-isoindole-1,3-dione], the figure is more than 120%; as for `O=C1CCC(N2C(=O)c3ccc(OCCCCCN4CCC(O[C@H]5C[C@H](Oc6ccc7c(c6)Sc6cc([N+](=O)[O-])ccc6N7)C5)CC4)cc3C2=O)C(=O)N1` (stereo partly drawn) [Exemplary Compound 19, 2-(2,6-dioxo-3-piperidyl)-5-[5-[4-[3-[(7-nitro-10H-phenothiazin-3-yl)oxy]cyclobutoxy]-1-piperidyl]pentoxy]isoindoline-1,3-dione], 35 to 70%.
As for `O=C1CCC(N2C(=O)c3ccc(OCCCCCN4CCC(OC5CN(CCCN6c7ccccc7Sc7ccccc76)C5)CC4)cc3C2=O)C(=O)N1` (stereo not drawn) [Exemplary Compound 22, 2-(2,6-dioxo-3-piperidyl)-5-[5-[4-[1-(3-phenothiazin-10-ylpropyl)azetidin-3-yl]oxy-1-piperidyl]pentoxy]isoindoline-1,3-dione], the figure is 35 to 70%; as for `Cc1ncsc1-c1ccc([C@H](C)NC(=O)[C@@H]2C[C@@H](O)CN2C(=O)[C@@H](NC(=O)COCCOCCOCCOCCOCCOc2ccc3c(c2)Sc2cc([N+](=O)[O-])ccc2N3)C(C)(C)C)cc1` [Exemplary Compound 11, (2S,4R)-1-((S)-2-(tert-butyl)-20-((7-nitro-10H-phenothiazin-3-yl)oxy)-4-oxo-6,9,12,15,18-pentaoxa-3-azaicosanoyl)-4-hydroxy-N-((S)-1-(4-(4-methylthiazol-5-yl)phenyl)ethyl)pyrrolidine-2-carboxamide], more than 120%; as for `COc1cc(/C=C/c2ccc3cc(OCCOCCOCCOCCOc4ccc5c(c4)C(=O)N(C4CCC(=O)NC4=O)C5=O)ccc3n2)ccn1` (stereo not drawn) [Exemplary Compound 36, 2-(2,6-dioxo-3-piperidyl)-5-[2-[2-[2-[2-[[2-[(E)-2-(2-methoxy-4-pyridyl)vinyl]-6-quinolyl]oxy]ethoxy]ethoxy]ethoxy]ethoxy]isoindoline-1,3-dione], more than 120%.
As for `O=C1CCC(N2C(=O)c3ccc(N4CCN(CCN5CCC(O[C@H]6C[C@H](Oc7ccc8c(c7)Sc7cc([N+](=O)[O-])ccc7N8)C6)CC5)CC4)cc3C2=O)C(=O)N1` (stereo partly drawn) [Exemplary Compound 18, 2-(2,6-dioxo-3-piperidyl)-5-[4-[2-[4-[3-[(7-nitro-10H-phenothiazin-3-yl)oxy]cyclobutoxy]-1-piperidyl]ethyl]piperazin-1-yl]isoindoline-1,3-dione], the figure is 70 to 120%.
For `CN(CCCN1c2ccccc2Sc2ccccc21)CCOCCOCCOc1ccc2c(c1)C(=O)N(C1CCC(=O)NC1=O)C2=O` (stereo not drawn) [Exemplary Compound 15, 5-(2-(2-(2-((3-(10H-phenothiazin-10-yl)propyl)(methyl)amino)ethoxy)ethoxy)ethoxy)-2-(2,6-dioxopiperidin-3-yl)isoindoline-1,3-dione], the remaining activity at 1 µM was 35 to 70%.
The figure for `O=C1CCC(N2C(=O)c3ccc(OCCCCCN4CCC(O[C@H]5C[C@H](Oc6ccc(CN7C(=O)C(=CC=Cc8ccc([N+](=O)[O-])cc8)c8ccccc87)cc6)C5)CC4)cc3C2=O)C(=O)N1` (stereo partly drawn) [Exemplary Compound 31, 2-(2,6-dioxopiperidin-3-yl)-5-((5-(4-((1r,3r)-3-(4-(((Z)-3-((E)-3-(4-nitrophenyl)allylidene)-2-oxoindolin-1-yl)methyl)phenoxy)cyclobutoxy)piperidin-1-yl)pentyl)oxy)isoindoline-1,3-dione] is 70 to 120%.
On to `O=C1CCC(N2C(=O)c3ccc(N4CCN(CCCO[C@H]5C[C@H](Oc6ccc7c(c6)Sc6cc([N+](=O)[O-])ccc6N7)C5)CC4)cc3C2=O)C(=O)N1` (stereo partly drawn) [Exemplary Compound 30, 2-(2,6-dioxo-3-piperidyl)-5-[4-[3-[3-[(7-nitro-10H-phenothiazin-3-yl)oxy]cyclobutoxy]propyl]piperazin-1-yl]isoindoline-1,3-dione formate], for which the remaining activity at 1 µM fell in the range of 35 to 70%.
As for `COc1cc(/C=C/c2ccc3cc(OCCOCCOCCOCC(=O)N[C@H](C(=O)N4C[C@H](O)C[C@H]4C(=O)N[C@@H](C)c4ccc(-c5scnc5C)cc4)C(C)(C)C)ccc3n2)ccn1` [Exemplary Compound 35, (2S,4R)-1-((S)-2-(tert-butyl)-14-((2-((E)-2-(2-methoxypyridin-4-yl)vinyl)quinolin-6-yl)oxy)-4-oxo-6,9,12-trioxa-3-azatetradecanoyl)-4-hydroxy-N—((S)-1-(4-(4-methylthiazol-5-yl)phenyl)ethyl)pyrrolidine-2-carboxamide], the figure is 35 to 70%.
